Assays:
[1] = molecular target: T1, CDK12/CycK (Homo sapiens, UniProt Q9NYV4); assay: ADP-Glo kinase assay, CDK12; format: biochemical; conditions: for IC50: ADP-Glo kinase assay, means from three independent experiments
T1 construct: ICE Bioscience Inc. (assay service)
Method: (§1) The kinase inhibitory activities of the compounds against CDK12 and CDK13 were preliminarily evaluated using the ADP-Glo kinase assay. Cell growth inhibition was determined in VCaP prostate cancer cells, which were characterized as being sensitive to CDK12/13 inhibition.[14]
All the kinase activity were performed using an ADP-Glo kinase assay by ICE Bioscience Inc. (Beijing, China). Kinome selectivity profiles (KINOMEscan profiling) and Kd detection were performed by Eurofins DiscoveryX Corporation (San Diego, CA, USA).

[2] = molecular target: T2, CDK13/CycK (Homo sapiens, UniProt Q14004); assay: ADP-Glo kinase assay, CDK13; format: biochemical; conditions: means from three independent experiments
T2 construct: ICE Bioscience Inc. (assay service)
T2 sequence (Q14004 whole entry): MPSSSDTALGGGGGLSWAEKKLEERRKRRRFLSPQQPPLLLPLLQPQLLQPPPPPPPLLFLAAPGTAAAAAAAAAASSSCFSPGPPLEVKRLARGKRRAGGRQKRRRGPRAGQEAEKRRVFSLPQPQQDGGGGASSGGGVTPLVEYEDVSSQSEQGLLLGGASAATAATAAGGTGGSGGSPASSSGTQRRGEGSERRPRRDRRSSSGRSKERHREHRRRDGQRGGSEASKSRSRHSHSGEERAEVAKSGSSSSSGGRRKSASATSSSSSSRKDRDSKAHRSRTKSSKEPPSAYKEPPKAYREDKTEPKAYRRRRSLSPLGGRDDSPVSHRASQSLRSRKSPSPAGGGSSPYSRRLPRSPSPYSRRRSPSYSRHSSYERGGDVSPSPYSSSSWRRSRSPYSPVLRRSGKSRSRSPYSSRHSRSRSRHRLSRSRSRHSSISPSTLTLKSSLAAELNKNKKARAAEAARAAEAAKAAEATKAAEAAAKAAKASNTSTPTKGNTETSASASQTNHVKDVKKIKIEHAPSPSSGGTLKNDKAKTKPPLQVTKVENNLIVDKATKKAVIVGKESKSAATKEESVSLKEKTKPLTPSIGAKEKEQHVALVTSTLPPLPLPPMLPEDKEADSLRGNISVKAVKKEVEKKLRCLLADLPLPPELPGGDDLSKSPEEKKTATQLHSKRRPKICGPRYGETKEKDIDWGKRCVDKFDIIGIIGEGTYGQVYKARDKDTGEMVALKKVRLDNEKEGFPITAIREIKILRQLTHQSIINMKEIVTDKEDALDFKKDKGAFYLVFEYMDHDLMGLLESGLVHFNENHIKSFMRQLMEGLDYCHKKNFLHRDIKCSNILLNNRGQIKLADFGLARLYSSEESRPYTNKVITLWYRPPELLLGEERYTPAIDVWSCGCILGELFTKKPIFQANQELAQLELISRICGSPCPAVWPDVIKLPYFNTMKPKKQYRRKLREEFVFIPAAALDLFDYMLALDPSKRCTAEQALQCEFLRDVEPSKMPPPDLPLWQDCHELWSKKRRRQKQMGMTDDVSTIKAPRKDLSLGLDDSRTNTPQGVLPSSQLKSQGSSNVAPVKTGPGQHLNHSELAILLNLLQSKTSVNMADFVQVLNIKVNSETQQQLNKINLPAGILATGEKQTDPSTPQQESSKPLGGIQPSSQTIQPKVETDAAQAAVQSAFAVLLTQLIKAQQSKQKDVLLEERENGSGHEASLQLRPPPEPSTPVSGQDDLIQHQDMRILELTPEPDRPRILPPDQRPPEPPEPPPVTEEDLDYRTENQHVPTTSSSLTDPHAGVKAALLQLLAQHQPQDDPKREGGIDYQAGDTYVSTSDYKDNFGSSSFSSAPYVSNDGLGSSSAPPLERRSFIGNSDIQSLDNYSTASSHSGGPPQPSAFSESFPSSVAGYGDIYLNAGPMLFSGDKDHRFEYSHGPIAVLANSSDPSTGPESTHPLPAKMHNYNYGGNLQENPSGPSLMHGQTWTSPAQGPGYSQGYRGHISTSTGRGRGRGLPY
T2 sequence (O75909 whole entry partner): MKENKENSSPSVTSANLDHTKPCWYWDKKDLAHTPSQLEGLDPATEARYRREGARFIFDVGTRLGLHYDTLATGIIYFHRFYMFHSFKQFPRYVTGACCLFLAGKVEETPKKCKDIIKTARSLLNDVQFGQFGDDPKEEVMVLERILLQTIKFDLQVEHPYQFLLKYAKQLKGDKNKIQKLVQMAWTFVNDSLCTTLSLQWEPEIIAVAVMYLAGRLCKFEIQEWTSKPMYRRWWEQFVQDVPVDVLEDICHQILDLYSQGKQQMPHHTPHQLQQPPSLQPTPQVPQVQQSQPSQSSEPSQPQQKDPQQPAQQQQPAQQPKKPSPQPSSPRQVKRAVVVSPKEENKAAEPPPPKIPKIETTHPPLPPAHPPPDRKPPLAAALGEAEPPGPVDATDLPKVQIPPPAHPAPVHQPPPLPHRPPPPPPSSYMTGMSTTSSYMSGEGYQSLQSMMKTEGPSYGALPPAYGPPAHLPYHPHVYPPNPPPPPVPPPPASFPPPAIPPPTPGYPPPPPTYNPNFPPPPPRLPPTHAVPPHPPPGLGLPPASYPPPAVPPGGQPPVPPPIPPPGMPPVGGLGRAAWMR
Method: as §1

[3] = test system: VCaP prostate cancer cells; assay: Cell proliferation assay (CellTiter-Glo), VCaP; format: cell-based, human; conditions: for IC50: Homo sapiens, VCaP, 120 h, cell growth inhibition, 5 days, CellTiter-Glo
Method: as §1
Cells were seeded in 96-well plates and incubated at 37 °C and 5% CO2. After overnight incubation, serial dilutions of tested compounds were added to the plate. The assay was tested with Cell Titer-Glo (Promega) after 5 days. The luminescence signal was detected by the Infinite M1000 Pro plate reader (Tecan), and the IC50 values were calculated by GraphPad Prism 10.

[4] = test system: 468 kinases; assay: KINOMEscan kinase selectivity profiling; format: binding; conditions: 1 μM; 403 non-mutant kinases
Method: Figure S1. The results of selectivity profiling study of compound 14h. (A) Chemical structure and the K d values of compound 14h against CDK12/13, and the KinomeScan kinase selectivity proﬁles of compound 14h at 1 μM against 468 kinases; (B) KinomeScan profiling results of compound 14h against CDK family members.
(1 picture or pasted object on this page, not shown here)

[5] = Pharmacokinetics study in mice; format: in vivo, ICR mice; conditions: both sexes, ICR, mouse, plasma
[6] = test system: VCaP CRPC xenograft; assay: In vivo efficacy, VCaP CRPC mouse model; set-up: species or system mice; conditions: YJZ5118 i.p., q.d., uprosertib p.o., 5x/week, 27 days, compared to vehicle
Method: All the animal experiments were performed under an approved animal protocol (Protocol ID: PRO00010006, PI, Arul Chinnaiyan) by the Institutional Animal Care & Use Committee of the University of Michigan. Six- to eight-week-old NSG (Jackson Laboratory) or CB17SCID female (Charles River Laboratory) mice were in a regular SPF housing room prior to cell injection. Briefly, 5 ×10^6 cells of VCaP CRPC were injected […] of NSG or CB17SCID mice, respectively. After tumor size reached approximately 200–400 mm^3, animals were subjected to drug treatment. […] Vehicle consisted of 20% PEG400, 6% Cremophor EL, and 74% PBS solution. Tumors were collected at the end of the experiment for Western blot analysis.

[7] = test system: VCaP cells; assay: Washout experiment, cell growth; format: cell-based, human; conditions: VCaP cells treated 6 h, compound removed, 5 days in compound-free media
Method: (§2) The previously reported reversible inhibitor 10 was included for comparison. VCaP cells were treated with the compounds for 6 h, after which the compounds were removed, and the cells were cultured in compound-free media for 5 days.

[8] = molecular target: T3, CDK15/CycY (Homo sapiens, UniProt Q96Q40); assay: CDK family panel, ADP-Glo; format: biochemical
T3 construct: ICE Bioscience Inc. (assay service)
T3 sequence (Q96Q40 whole entry, species assumed): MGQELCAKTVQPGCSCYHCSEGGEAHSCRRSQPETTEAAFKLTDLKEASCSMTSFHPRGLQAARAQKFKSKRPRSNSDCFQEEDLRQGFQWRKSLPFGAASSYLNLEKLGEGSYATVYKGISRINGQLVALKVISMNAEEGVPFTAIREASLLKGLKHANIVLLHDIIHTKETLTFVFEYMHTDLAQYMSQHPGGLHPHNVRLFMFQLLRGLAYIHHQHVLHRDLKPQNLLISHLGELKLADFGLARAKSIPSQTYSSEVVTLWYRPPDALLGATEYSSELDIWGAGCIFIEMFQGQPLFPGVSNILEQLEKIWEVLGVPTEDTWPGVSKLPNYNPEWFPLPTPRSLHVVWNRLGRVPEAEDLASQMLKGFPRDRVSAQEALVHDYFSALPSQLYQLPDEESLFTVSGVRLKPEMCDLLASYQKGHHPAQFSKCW
T3 sequence (Q8ND76 whole entry partner, species assumed): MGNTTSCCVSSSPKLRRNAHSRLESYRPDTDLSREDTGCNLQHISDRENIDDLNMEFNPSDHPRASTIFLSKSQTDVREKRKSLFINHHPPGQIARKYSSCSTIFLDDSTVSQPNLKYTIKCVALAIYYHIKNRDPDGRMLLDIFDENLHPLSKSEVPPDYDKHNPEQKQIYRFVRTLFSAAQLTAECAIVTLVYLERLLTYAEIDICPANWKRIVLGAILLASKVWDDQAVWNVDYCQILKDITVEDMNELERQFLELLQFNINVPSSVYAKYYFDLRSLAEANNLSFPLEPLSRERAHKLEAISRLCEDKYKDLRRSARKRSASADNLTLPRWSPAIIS

[9] = test system: phosphorylation of RNA polymerase II at Ser2; assay: Washout experiment, RNA polymerase II Ser2 phosphorylation (immunoblot); format: cell-based, human; conditions: VCaP cells; YJZ5118 100 nM
Method: as §2
Generally, after incubation with the compounds for the indicated time, the tested cells were washed by cold PBS buffer (Gibco) and lysed with RIPA buffer (ThermoFisher Scientific) supplemented with cOmplete protease inhibitor cocktail tablets (Sigma-Aldrich). The cell lysate was treated with ultrasonic for 20s, following a centrifugation of 14000 rpm at 4°C for 10 min. The protein concentration was measured by BCA protein assay (DC Protein Assay, BIO-RAD). An equal amount of protein was loaded to 4–12% Bis-Tris gels and underwent SDS-PAGE electrophoresis at 120 V for 90 min. The proteins were transferred to a nitrocellulose (NC) membrane (Thermo Scientific) and the membranes were blocked in 5% milk buffer at room temperature for 1h, followed by incubating with primary antibody at the recommended dilution at 4°C for overnight. The membranes were washed by PBST for three times and incubated with anti-rabbit or anti-mouse HRP-conjugated secondary antibody for 1h at room temperature, after which the membranes were imaged by Odyssey CLx Imager (LiCOR Biosciences).

[10] = test system: CDK12; set-up: method as in PMID 30067358; conditions: LANCE Ultra assay; read-out: reported IC50 CDK12; cited from earlier work
[11] = test system: CDK13; set-up: method as in PMID 30067358; conditions: LANCE Ultra assay; read-out: reported IC50 CDK13; cited from earlier work
[12] = Permeability and efflux ratio in Caco-2 cells; format: in vitro ADME; conditions: human
[13] = test system: VCaP cells; assay: Cell apoptosis assay by flow cytometry; format: cell-based, human; conditions: YJZ5118 at 100 nM
Method: Cells were seeded in six-well plates and incubated for 24 h at 37 °C and 5% CO2. Cells were then treated with the indicated concentrations of the tested compounds for 48 h. The treated cells then were collected, centrifuged and washed twice by cold PBS. […] Cell samples were analyzed with flow cytometry (SH800S cell sorter, Sony Biotechnology).

T1 sequence (Q9NYV4 whole entry): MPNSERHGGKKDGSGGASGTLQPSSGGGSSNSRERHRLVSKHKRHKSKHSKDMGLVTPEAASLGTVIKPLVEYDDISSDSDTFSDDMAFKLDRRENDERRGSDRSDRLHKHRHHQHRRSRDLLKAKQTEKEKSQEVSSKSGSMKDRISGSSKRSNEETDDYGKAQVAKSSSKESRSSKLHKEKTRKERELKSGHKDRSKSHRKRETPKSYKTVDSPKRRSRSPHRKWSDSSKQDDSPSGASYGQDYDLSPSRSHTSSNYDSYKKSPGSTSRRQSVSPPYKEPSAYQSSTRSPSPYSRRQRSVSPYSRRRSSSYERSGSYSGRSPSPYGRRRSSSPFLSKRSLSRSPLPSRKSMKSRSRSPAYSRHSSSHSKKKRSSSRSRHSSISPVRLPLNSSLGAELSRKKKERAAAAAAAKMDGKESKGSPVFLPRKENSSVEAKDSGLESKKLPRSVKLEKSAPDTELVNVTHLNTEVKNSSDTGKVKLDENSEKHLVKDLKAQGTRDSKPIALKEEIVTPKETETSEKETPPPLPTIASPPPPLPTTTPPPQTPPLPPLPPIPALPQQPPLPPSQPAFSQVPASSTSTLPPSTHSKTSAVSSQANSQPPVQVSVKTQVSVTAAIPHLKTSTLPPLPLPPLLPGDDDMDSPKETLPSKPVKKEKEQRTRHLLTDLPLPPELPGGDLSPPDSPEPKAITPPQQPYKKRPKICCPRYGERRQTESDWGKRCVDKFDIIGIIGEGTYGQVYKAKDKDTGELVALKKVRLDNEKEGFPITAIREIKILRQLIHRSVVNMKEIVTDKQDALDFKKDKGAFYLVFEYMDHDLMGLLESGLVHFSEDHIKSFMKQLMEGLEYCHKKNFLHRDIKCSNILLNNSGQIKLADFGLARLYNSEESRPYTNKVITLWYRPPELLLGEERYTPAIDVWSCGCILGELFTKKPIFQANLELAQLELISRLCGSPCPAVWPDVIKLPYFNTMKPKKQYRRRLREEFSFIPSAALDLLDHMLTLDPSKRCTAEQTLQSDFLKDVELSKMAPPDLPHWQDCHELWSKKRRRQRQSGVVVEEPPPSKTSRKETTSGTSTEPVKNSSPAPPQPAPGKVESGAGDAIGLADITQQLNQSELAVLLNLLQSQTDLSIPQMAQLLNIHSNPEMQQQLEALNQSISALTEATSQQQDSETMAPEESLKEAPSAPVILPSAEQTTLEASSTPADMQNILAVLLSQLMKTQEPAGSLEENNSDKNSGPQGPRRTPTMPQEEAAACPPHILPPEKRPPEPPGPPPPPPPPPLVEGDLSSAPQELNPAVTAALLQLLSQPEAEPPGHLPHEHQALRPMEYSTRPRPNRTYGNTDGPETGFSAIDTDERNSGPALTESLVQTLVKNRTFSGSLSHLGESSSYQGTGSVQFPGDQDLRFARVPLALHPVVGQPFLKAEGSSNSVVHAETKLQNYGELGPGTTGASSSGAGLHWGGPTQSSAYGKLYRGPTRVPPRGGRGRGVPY
T1 sequence (O75909 whole entry partner): as the sequence (O75909 whole entry partner) above

IC50 [1] [nM]	IC50 [2] [nM]	IC50 [3] [nM]	Structure (SMILES)	also measured
568	177	57.6	C=CC(=O)Nc1cc(N(C(=O)NCc2ccccc2)[C@H]2CC[C@H](Nc3ccc(C#N)cn3)CC2)ccc1N1CCC(N(C)C)C1 (stereo partly drawn) [Compound 14e, N-(5-(3-benzyl-1-((1r,4r)-4-((5-cyanopyridin-2-yl)amino)cyclohexyl)ureido)-2-(3-(dimethylamino)pyrrolidin-1-yl)phenyl)acrylamide]	
151	73.7	133	C=CC(=O)Nc1cc(N(C(=O)NCc2ccccc2)[C@H]2CC[C@H](Nc3ccc(C#N)cn3)CC2)ccc1N1CC(N(C)C)C1 [Compound 14d, N-(5-(3-benzyl-1-((1r,4r)-4-((5-cyanopyridin-2-yl)amino)cyclohexyl)ureido)-2-(3-(dimethylamino)azetidin-1-yl)phenyl)acrylamide]	
130	66.8	39.9	C=CC(=O)Nc1cc(N(C(=O)NCc2ccccc2)[C@H]2CC[C@H](Nc3ccc(C#N)cn3)CC2)ccc1N1CCN(C)CC1 [Compound 14f, N-(5-(3-benzyl-1-((1r,4r)-4-((5-cyanopyridin-2-yl)amino)cyclohexyl)ureido)-2-(4-methylpiperazin-1-yl)phenyl)acrylamide]	
			Cn1ncc(Cl)c1-c1cc(C(=O)N[C@H](CN)Cc2ccc(F)c(F)c2)oc1Cl [Uprosertib, reference compound]	tumor growth [6]: significant reduction in tumor growth
209	83.9	76.3	C=CC(=O)Nc1cc(N(C(=O)NCc2ccccc2)[C@H]2CC[C@H](Nc3ccc(C#N)cn3)CC2)ccc1N1C[C@H]2C[C@@H]1CN2C [Compound 14g, N-(5-(3-benzyl-1-((1r,4R)-4-((5-cyanopyridin-2-yl)amino)cyclohexyl)ureido)-2-((1R,4R)-5-methyl-2,5-diazabicyclo[2.2.1]heptan-2-yl)phenyl)acrylamide]	
			Cn1cc(-n2cnc3c(NCc4nc5cc(Cl)c(Cl)cc5[nH]4)nc(N4CCOCC4)nc32)cn1 [Compound 10, SR-4835, reference compound]	cell growth inhibitory effect after washout [7]: nearly completely lost following washout
			Cn1cc(-c2ccc(N(C(=O)NCc3ccccc3)[C@H]3CC[C@H](Nc4ccc(C#N)cn4)CC3)cc2)ccc1=O [Compound 2, reference compound]	IC50 [8]: 3020 nM; RNA polymerase II Ser2 phosphorylation after washout [9]: recovery of phosphorylation at 4 h after washout; IC50 [10]: 52 nM; IC50 [11]: 10 nM
55	12.8	59.9	C=CC(=O)Nc1cc(N(C(=O)NCc2ccccc2)[C@H]2CC[C@H](Nc3ccc(C#N)cn3)CC2)ccc1N1CCOCC1 [Compound 14j, N-(5-(3-benzyl-1-((1r,4r)-4-((5-cyanopyridin-2-yl)amino)cyclohexyl)ureido)-2-morpholinophenyl)acrylamide]	
77.4	63.3	33.5	CN(C)C/C=C/C(=O)Nc1ccc(C(=O)N2CCC[C@@H](Nc3ncc(Cl)c(-c4c[nH]c5ccccc45)n3)C2)cc1 [Compound 3, THZ531, reference compound]	apoptosis rate [13]: 24.9%

Structure (SMILES)	IC50 [1] [nM]	IC50 [2] [nM]	IC50 [3] [nM]	also measured
C=CC(=O)Nc1cc(N(C(=O)NCc2ccccc2)[C@H]2CC[C@H](Nc3ccc(C#N)cn3)CC2)ccc1N1CCN(C)[C@@H](C)C1 [Compound 14h, N-(5-(3-benzyl-1-((1r,4S)-4-((5-cyanopyridin-2-yl)amino)cyclohexyl)ureido)-2-((S)-3,4-dimethylpiperazin-1-yl)phenyl)acrylamide]	33.1	21.7	4.3	Number of Hits, S (1) [4]: 0; Number of Hits, S (10) [4]: 2; Number of Hits, S (35) [4]: 6; Selectivity Score S (10) [4]: 0.005; Selectivity Score S (35) [4]: 0.015; AUC(0-t) ([5]; iv, i.v. 2 mg/kg): 309 ng·h/mL; Cmax ([5]; iv, i.v. 2 mg/kg): 658 ng/mL; Tmax ([5]; iv, i.v. 2 mg/kg): 4.8 min; clearance ([5]; iv, i.v. 2 mg/kg): 108 mL/min/kg; half-life ([5]; iv, i.v. 2 mg/kg): 21.6 min; bioavailability ([5]; po, 10 mg/kg, p.o. 10 mg/kg, read-out: F (oral bioavailability)): 42.2%; AUC(0-t) ([5]; po, p.o. 10 mg/kg): 652 ng·h/mL; Cmax ([5]; po, p.o. 10 mg/kg): 499 ng/mL; Tmax ([5]; po, p.o. 10 mg/kg): 30 min; half-life ([5]; po, p.o. 10 mg/kg): 37.2 min
C=CC(=O)Nc1cccc(N(C(=O)NCc2ccccc2)[C@H]2CC[C@H](Nc3ccc(C#N)cn3)CC2)c1 [Compound 14b, N-(3-(3-benzyl-1-((1r,4r)-4-((5-cyanopyridin-2-yl)amino)cyclohexyl)ureido)phenyl)acrylamide]	506	99	96.2	reduction in kinase inhibitory potency compared with 14a ([1]; CDK12 and CDK13): 7- to 13 fold; fold more potency than 14a in the growth inhibition assay against VCaP cells [3]: 3.4 fold; Papp A→B [12]: 0.91 ×10⁻⁶ cm/s; Papp B→A [12]: 13.7 ×10⁻⁶ cm/s; efflux ratio [12]: 15
C=CC(=O)Nc1cc(N(C(=O)NCc2ccccc2)[C@H]2CC[C@H](Nc3ccc(C#N)cn3)CC2)ccc1N(C)CCN(C)C [Compound 14c, N-(5-(3-benzyl-1-((1r,4r)-4-((5-cyanopyridin-2-yl)amino)cyclohexyl)ureido)-2-((2-(dimethylamino)ethyl)(methyl)amino)phenyl)acrylamide]	191	79.3	44.4	antiproliferative potency in VCaP cells, fold more potent than lead compound 2 [3]: approximately 44 fold
C=CC(=O)Nc1cc(N(C(=O)NCc2ccccc2)[C@H]2CC[C@H](Nc3ccc(C#N)cn3)CC2)ccc1N1CCN(C(C)=O)CC1 [Compound 14i, N-(2-(4-acetylpiperazin-1-yl)-5-(3-benzyl-1-((1r,4r)-4-((5-cyanopyridin-2-yl)amino)cyclohexyl)ureido)phenyl)acrylamide]	331	164	45.5	fold weaker potency against the kinases compared to 14f ([1]; CDK12 and CDK13): 2- to 3 fold
C=CC(=O)Nc1cc(N(C(=O)NCc2ccccc2)[C@H]2CC[C@H](Nc3ccc(C#N)cn3)CC2)ccc1-c1ccc(=O)n(C)c1 [Compound 14a, N-(5-(3-benzyl-1-((1r,4r)-4-((5-cyanopyridin-2-yl)amino)cyclohexyl)ureido)-2-(1-methyl-6-oxo-1,6-dihydropyridin-3-yl)phenyl)acrylamide]	37.9	14.9	330	antiproliferative potency in VCaP cells, fold more potent than lead compound 2 [3]: approximately 6 fold; Papp A→B [12]: 0.07 ×10⁻⁶ cm/s; Papp B→A [12]: 5.25 ×10⁻⁶ cm/s; efflux ratio [12]: 72.6
